Assay results reported in patent US12508323B2, “Method of treatment of colorectal, breast and lung cancer with metal containing immune agonist complexes” (HANGZHOU XINGAO BIOTECHNOLOGY CO., LTD., priority 2020, dated 2025).

Tests used:
[1] = system: colorectal cancer cell line CT26; assay: Subcutaneous transplantation tumor model, CT26 in BALB/C mice; format: in vivo; conditions: i.p. 10 mg/kg (nanobody 200 μg/mouse) once a day for 21 days
Procedure: Specific pathogen free (SPF)-grade BALB/C and C57BL/6 male mice, aged 7-8 weeks and weighing 20-22 g, were purchased from Shanghai Slac Laboratory Animal Co., Ltd (Laboratory animal quality certificate number: SCXK (Shanghai)2007-0005.
Mice were injected intraperitoneally with the immune agonist or complex with a dose of 10 mg/kg, or each injected intraperitoneally with 200 μg of the nanobody.
Administration route: intraperitoneal injection.
Frequency: once a day for consecutive 21 days.
Cancer cells were cultured, passaged, collected at the logarithmic phase of cells, and prepared into a cell suspension at a concentration of (1.0×10^7) per ml. Mice were injected with 0.2 ml of the cell suspension at the axilla of the right forelimb (cell number 2.0×10^6 cells/each), and were tumorigenic in about 8 days. These mice were randomly divided into 10 groups equally, namely, group A: negative control group (saline group), group B: positive control (cGAMP) group (dose: 10 mg/kg), group C: MncGAMP group (dose: 10 mg/kg), group D: anti-PD-L1 nanobody group, group E: anti-CD47 nanobody group, group F: anti-TfR1 nanobody group, group G: complex V group (dose: 10 mg/kg), group H: complex VI group (dose: 10 mg/kg), group I: complex IX group (dose: 10 mg/kg), and group J: complex VIII group (10 mg/kg). […]
The data were expressed as ×±s and processed by SPSS10.0 software. […]

[2] = system: coronavirus (ATCC VR-841); assay: Inhibition of coronavirus replication in PBMCs (fluorescence quantitative RT-PCR); format: cell-based; conditions: PBMC, 504 h, 100 μg/mL drug, 10 μL virus, after three weeks, six samples per group, read-out: Average inhibition rate of coronavirus (%)
Excerpt: Peripheral blood mononuclear cells (PBMCs) used herein was purchased from Shanghai Saili biotechnology Co., Ltd, which mainly included lymphocytes (T cells/B cells), monocytes, macrophages, and dendritic cells. Most of PBMCs were lymphocytes. PBMCs were normal primary cells, which belonged to a mixed system.
The virus strain used herein was coronavirus (ATCC VR-841), which was suitable for laboratory use and purchased from ATCC company. It was a bronchopneumonia coronavirus. Virus experiments in this study were performed by virus laboratory of American Animals Inc.
The cultured PBMCs were divided into seven groups (six samples in each group), namely, group A: negative control group (PBMC); group B, PBMC+cGAMP; group C, PBMC+MncGAMP; group D, PBMC+complex VIII; group E, PBMC+complex I; group F, PBMC+complex II; and group G, PBMC+complex III. Except for group A, which was used as a control group without drug addition, all other groups were respectively added with 100 μg/mL of the corresponding drug. Each cell sample was added with 10 μL of virus, and the antiviral status of the different immune agonist complexes were determined after three weeks. The inhibition rate of virus was selected as an evaluation index. The activity titer of the virus was detected by fluorescence quantitative RT-PCR.

TREM2 = TREM2 expression in brain tissues of AD mice; format: in vivo; conditions: 10 mg/kg i.p., 60 days of administration
Excerpt: ELISA kits were purchased from Cloud Clone. Flow cytometry nanobodies were purchased from eBiosciences. RT-PCR reagents were purchased from Takara. Immune fluorescence and immune histochemistry nanobodies were purchased from Abcam. Other reagents were purchased from Sigma-Aldrich. Primer synthesis was done by Shanghai Biotechnology Co. Laser confocal microscope was purchased from Leica (Germany). 7500 quantitative PCR instrument was purchased from Applied Biosystems ABI (USA). Light microscope was purchased from Leica (Germany). Enzyme marker was purchased from Hangzhou Aosheng Company. Attune flow cytometer was purchased from Thermo Fisher Scientific. RT-PCR in vitro TREM2 content was determined, and the TREM2 primer sequences were as follows:
Whether mRNA levels of TREM2 in brain tissues of mice were altered after administration of the immune agonist and complexes thereof was determined.

[3] = system: pro-inflammatory factors IL-1β and TNF-α; assay: Pro-inflammatory factors in brain tissues of AD mice (ELISA); format: in vivo; conditions: 10 mg/kg i.p., two months of administration
Procedure: To explore the effect of the above immune agonists and complexes thereof on neuroinflammation in the brain of AD mice, the content of pro-inflammatory factors in brain tissues of AD mice was determined by ELISA method. The content of pro-inflammatory factors IL-1β and TNF-α in brain tissues of AD mice were measured respectively.
Fresh brain tissues of mice were taken and weighed, and the content of inflammatory factors IL-1β and TNF-α in brain tissues was determined by using the Cloud Clone ELISA kit. […] Therefore, the immune agonist-brain-targeted nanocarrier complexes were able to eliminate the chronic neuroinflammation present in the course of AD in mice.

In the case of `Nc1nc(=O)c2ncn(C3OC4COP(=O)(O)OC5C(COP(=O)(O)OC3C4O)OC(n3cnc4c(N)ncnc43)C5O)c2[nH]1` (stereo not drawn) [cGAMP, 2′3′-cGAMP], the “Average tumor weight” value ([1]; n = 10, mean ± SD) is reported as 0.784 ± 0.135 g, the “Average tumor inhibition rate (%)” value ([1]; vs negative control tumor weight) is reported as 65.0% and the inhibition at 100 µg/mL [2] is reported as 25 ± 4%. For the same compound, the “TREM2” value (TREM2) was 55.38 ± 0.27 pg/mg, the “IL-1β” value [3] was 46.18 ± 0.09 pg/mg and the “TNF-α” value [3] was 35.52 ± 0.35 pg/mg.
